Activity calls are given as the source filed them. No cut-off for these calls is given here.
Legend:
Jurkat [1] = test: Induction of DNA damage in human Jurkat cells at 6 uM assessed as nuclear diffusion factor incubated for 1 hr in presence of iron-chelator o-phenanthroline by fast halo based fluorescence microscopic analysis; format: functional, cell-based
TK6 [2] = test: Induction of DNA damage in human TK6 cells assessed as accumulation of single strand breaks at 2 to 8 uM by measuring nuclear diffusion factor by fast halo based fluorescence microscopic analysis; format: functional, cell-based; settings: dose 2-8 µM
TK6 [3] = test: Cytotoxicity against human TK6 cells assessed as reduction in cell viability incubated for 24 hrs by trypan blue staining based MTT assay; format: functional; settings: dose 0-6 µM
Jurkat [4] = test: Induction of apoptosis in human Jurkat cells assessed as cleavage of PARP1 at 4 to 6 uM by flow cytometric analysis; format: functional, cell-based; settings: dose 4-6 µM
Jurkat [5] = test: Cytotoxicity against human Jurkat cells assessed as cell growth inhibition under 37 degreeC incubated for 72 hrs by trypan blue staining based MTT assay; format: functional
Jurkat [6] = test: Induction of DNA damage in human Jurkat cells measured at 1 hr; format: functional, cell-based; settings: dose 6.0 µM
Jurkat [7] = test: Induction of apoptosis in human Jurkat cells assessed as increase in caspase-3 activity incubated for 2 hrs by colorimetric protease assay; format: functional, cell-based; settings: dose 2-6 µM
Jurkat [8] = test: Cytotoxicity against human Jurkat cells at 6 uM incubated for 1 hr in presence of rotenone by trypan blue staining based MTT assay; format: functional, cell-based
Jurkat [9] = test: Induction of apoptosis in human Jurkat cells assessed as appearance of secondary necrosis pretreated with compound for 1 hr and measured after 5 hrs by uranyl acetate and lead citrate staining based transmission electron microscopic analysis; format: functional, cell-based; settings: time 6.0 hrs
Mitochondrial membrane = test: Induction of mitochondrial membrane potential loss in human Jurkat cells at 2 to 6 uM by flow cytometric analysis; settings: dose 2-6 µM
Jurkat [10] = test: Induction of apoptosis in human Jurkat cells assessed as appearance of chromatin condensation pretreated with compound for 1 hr and measured after 5 hrs by uranyl acetate and lead citrate staining based transmission electron microscopic analysis; format: functional, cell-based; settings: time 6.0 hrs
Jurkat [11] = test: Cytotoxicity against human Jurkat cells at 6 uM in presence of iron-chelator o-phenanthroline by trypan blue staining based MTT assay; format: functional, cell-based
OCI-AML-3 [12] = test: Cytotoxicity against human OCI-AML-3 cells assessed as reduction in cell viability incubated for 24 hrs by trypan blue staining based MTT assay; format: functional; settings: dose 0-8 µM
TK6 [13] = test: Induction of DNA damage in human TK6 cells assessed as micronuclei formation at 4 uM by measuring 1000 binucleated cells incubated for 4 hrs by May-Grunwald/Giemsa staining based microscopic analysis; format: functional
OCI-AML-3 [14] = test: Cytotoxicity against human OCI-AML-3 cells assessed as reduction in cell viability at 0 to 8 uM incubated for 24 hrs by trypan blue staining based MTT assay; format: functional; settings: dose 0-8 µM
Jurkat [15] = test: Induction of DNA damage in human Jurkat cells assessed as increase in accumulation of single strand breaks by measuring nuclear diffusion factor by fast halo based fluorescence microscopic analysis; format: functional, cell-based; settings: dose 0-8 µM
RPMI-1788 [16] = test: Cytotoxicity against human RPMI-1788 cells assessed as reduction in cell viability at 0 to 8 uM incubated for 24 hrs by trypan blue staining based MTT assay; format: functional; settings: dose 0-8 µM
MV4-11 [17] = test: Cytotoxicity against human MV4-11 cells assessed as reduction in cell viability incubated for 24 hrs by trypan blue staining based MTT assay; format: functional; settings: dose 0-8 µM
Jurkat [18] = test: Induction of DNA damage in human Jurkat cells at 6 uM assessed as nuclear diffusion factor incubated for 1 hr in presence of rotenone by fast halo based fluorescence microscopic analysis; format: functional, cell-based
Jurkat [19] = test: Cytotoxicity against human Jurkat cells assessed as inhibition of cell viability incubated for 72 hrs by trypan blue staining based MTT assay; format: functional
Jurkat [20] = test: Induction of apoptosis in human Jurkat cells assessed as increase in caspase-8 activity incubated for 2 hrs by colorimetric protease assay; format: functional, cell-based; settings: dose 2-6 µM
Jurkat [21] = test: Induction of DNA damage in human Jurkat cells assessed as fold increase in H2AX phosphorylation expression at 4 to 8 uM incubated for 30 mins by flow cytometric analysis; format: functional; settings: dose 4-8 µM, 0.5 h
MOLM-13 [22] = test: Cytotoxicity against human MOLM-13 cells assessed as reduction in cell viability at 0 to 8 uM incubated for 24 hrs by trypan blue staining based MTT assay; format: functional; settings: dose 0-8 µM
MV4-11 [23] = test: Cytotoxicity against human MV4-11 cells assessed as reduction in cell viability at 0 to 8 uM incubated for 24 hrs by trypan blue staining based MTT assay; format: functional; settings: dose 0-8 µM
U-937 [24] = test: Cytotoxicity against human U-937 cells assessed as reduction in cell viability at 0 to 8 uM incubated for 24 hrs by trypan blue staining based MTT assay; format: functional; settings: dose 0-8 µM
TK6 [25] = test: Induction of DNA damage in human TK6 cells assessed as micronuclei formation at >4 uM incubated for 4 hrs by May-Grunwald/Giemsa staining based microscopic analysis; format: functional, cell-based
Jurkat [26] = test: Cytotoxicity against human Jurkat cells assessed as cell growth inhibition under 4 degreeC incubated for 72 hrs by trypan blue staining based MTT assay; format: functional
Jurkat [27] = test: Induction of apoptosis in human Jurkat cells assessed as appearance of cup-shaped masses pretreated with compound for 1 hr and measured after 5 hrs by uranyl acetate and lead citrate staining based transmission electron microscopic analysis; format: functional, cell-based; settings: time 6.0 hrs
Jurkat [28] = test: Induction of apoptosis in human Jurkat cells assessed as appearance of micronuclei pretreated with compound for 1 hr and measured after 5 hrs by uranyl acetate and lead citrate staining based transmission electron microscopic analysis; format: functional, cell-based; settings: time 6.0 hrs
RPMI-1788 [29] = test: Cytotoxicity against human RPMI-1788 cells assessed as reduction in cell viability incubated for 24 hrs by trypan blue staining based MTT assay; format: functional; settings: dose 0-8 µM
Jurkat [30] = test: Induction of DNA damage in human Jurkat cells assessed as accumulation of single strand breaks at 2 to 8 uM by measuring nuclear diffusion factor by fast halo based fluorescence microscopic analysis; format: functional, cell-based; settings: dose 2-8 µM
Jurkat [31] = test: Induction of DNA damage in human Jurkat cells assessed as fold increase in p53 expression at 4 uM by flow cytometric analysis; format: functional
Jurkat [32] = test: Induction of DNA damage in human Jurkat cells assessed as accumulation of single strand breaks at 2 to 6 uM under 4 degreeC incubated for 1 hr by measuring nuclear diffusion factor by fast halo based fluorescence microscopic analysis; format: functional, cell-based; settings: dose 2-6 µM
Jurkat [33] = test: Induction of DNA damage in human Jurkat cells assessed as single strand breaks at 8 uM by measuring nuclear diffusion factor measured after 3 hrs by fast halo based fluorescence microscopic analysis relative to control; format: functional
MOLM-13 [34] = test: Cytotoxicity against human MOLM-13 cells assessed as reduction in cell viability incubated for 24 hrs by trypan blue staining based MTT assay; format: functional; settings: dose 0-8 µM
TK6 [35] = test: Cytotoxicity against human TK6 cells assessed as reduction in cell viability at 0 to 6 uM incubated for 24 hrs by trypan blue staining based MTT assay; format: functional; settings: dose 0-6 µM
TK6 [36] = test: Induction of DNA damage in human TK6 cells assessed as micronuclei formation incubated for 4 hrs by May-Grunwald/Giemsa staining based microscopic analysis; format: functional, cell-based; settings: dose 1-4 µM
U-937 [37] = test: Cytotoxicity against human U-937 cells assessed as reduction in cell viability incubated for 24 hrs by trypan blue staining based MTT assay; format: functional; settings: dose 0-8 µM
Jurkat [38] = test: Induction of DNA damage in human Jurkat cells assessed as single strand breaks at <32 uM by measuring nuclear diffusion factor by fast halo based fluorescence microscopic analysis; format: functional, cell-based
Jurkat [39] = test: Cytotoxicity against human Jurkat cells assessed as inhibition of cell viability < 32 uM incubated for 72 hrs by trypan blue staining based MTT assay; format: functional
Jurkat [40] = test: Induction of DNA damage in human Jurkat cells at 4 uM assessed as nuclear diffusion factor incubated for 1 hr in presence of iron-chelator o-phenanthroline by fast halo based fluorescence microscopic analysis; format: functional, cell-based
Jurkat [41] = test: Cytotoxicity against human Jurkat cells at 4 uM in presence of iron-chelator o-phenanthroline by trypan blue staining based MTT assay; format: functional, cell-based
Jurkat [42] = test: Cytotoxicity against human Jurkat cells at 4 uM incubated for 1 hr in presence of rotenone by trypan blue staining based MTT assay; format: functional, cell-based
TK6 [43] = test: Induction of DNA damage in human TK6 cells assessed as micronuclei formation at 2 uM incubated for 4 hrs by May-Grunwald/Giemsa staining based microscopic analysis; format: functional, cell-based
Jurkat [44] = test: Induction of DNA damage in human Jurkat cells at 4 uM assessed as nuclear diffusion factor incubated for 1 hr in presence of rotenone by fast halo based fluorescence microscopic analysis; format: functional, cell-based
Jurkat [45] = test: Cytotoxicity against human Jurkat cells assessed as cell survival rate at 30 uM incubated for 72 hrs by trypan blue staining based MTT assay; settings: read-out: Survival

**Q.** What does the source list for Cc1ccccc1-c1c2ccc(=O)cc-2oc2cc(OCCCCCCN=C=S)ccc12?
**A.** Activity (Jurkat [1]): Active; Activity (TK6 [2]): Active; Activity (TK6 [3]): Dose-dependent-effect; Activity (Jurkat [4]): Active; IC50 (Jurkat [5]): 5.96 µM; Activity (Jurkat [6]): Dose-dependent-effect; Activity (Jurkat [7]): Dose-dependent-effect; Activity (Jurkat [8]): Active; Activity (Jurkat [9]): Active; Activity (Mitochondrial membrane): Active; Activity (Jurkat [10]): Active; Activity (Jurkat [11]): Active; Activity (OCI-AML-3 [12]): Dose-dependent-effect; Activity (TK6 [13]): 13.07; Activity (OCI-AML-3 [14]): Active; Activity (Jurkat [15]): Dose-dependent-effect; Activity (RPMI-1788 [16]): Active; Activity (MV4-11 [17]): Dose-dependent-effect; Activity (Jurkat [18]): Active; Activity (Jurkat [19]): Dose-dependent-effect; IC50 (Jurkat [19]): 5.96 µM; Activity (Jurkat [20]): Dose-dependent-effect; fold change (FC) (Jurkat [21]): 2; Activity (MOLM-13 [22]): Active; Activity (MV4-11 [23]): Active; Activity (U-937 [24]): Active; Activity (TK6 [25]): Active; IC50 (Jurkat [26]): 3.99 µM; Activity (Jurkat [27]): Active; Activity (Jurkat [28]): Active; Activity (RPMI-1788 [29]): Dose-dependent-effect; Activity (Jurkat [30]): Active; fold change (FC) (Jurkat [31]): 45.5; Activity (Jurkat [32]): Active; Activity (Jurkat [33]): 59.2%; Activity (MOLM-13 [34]): Dose-dependent-effect; Activity (TK6 [35]): Active; Activity (TK6 [36]): Dose-dependent-effect; Activity (U-937 [37]): Dose-dependent-effect

**Q.** How did the Activity (Jurkat [38]) turn out when Cc1ccccc1-c1c2ccc(=O)cc-2oc2cc(OCCCCCCN)ccc12 was run?
**A.** inactive

**Q.** What about the Activity (Jurkat [39]) of the same molecule?
**A.** inactive

**Q.** Which Activity (TK6 [2]) does the source give for Cc1ccccc1-c1c2ccc(=O)cc-2oc2cc(OCCOCCN=C=S)ccc12 here?
**A.** Active

**Q.** And the Activity (TK6 [3])?
**A.** Dose-dependent-effect

**Q.** And the Activity (Jurkat [4])?
**A.** Active

**Q.** And the IC50 (Jurkat [5])?
**A.** 3.65 µM

**Q.** And the Activity (Jurkat [6])?
**A.** Dose-dependent-effect

**Q.** And the Activity (Jurkat [7])?
**A.** Dose-dependent-effect

**Q.** And the Activity (Mitochondrial membrane)?
**A.** Active

**Q.** What about the Activity (Jurkat [40]) of the same molecule?
**A.** Active

**Q.** What about the Activity (OCI-AML-3 [12]) of the same molecule?
**A.** Dose-dependent-effect

**Q.** What about the Activity (TK6 [13]) of the same molecule?
**A.** 19.59

**Q.** What about the Activity (OCI-AML-3 [14]) of the same molecule?
**A.** Active

**Q.** And the Activity (Jurkat [15])?
**A.** Dose-dependent-effect

**Q.** What about the Activity (RPMI-1788 [16]) of the same molecule?
**A.** Active

**Q.** What about the Activity (MV4-11 [17]) of the same molecule?
**A.** Dose-dependent-effect

**Q.** What about the Activity (Jurkat [41]) of the same molecule?
**A.** Active

**Q.** What about the Activity (Jurkat [19]) of the same molecule?
**A.** Dose-dependent-effect

**Q.** And the IC50 (Jurkat [19])?
**A.** 3.65 µM

**Q.** What about the Activity (Jurkat [20]) of the same molecule?
**A.** Dose-dependent-effect

**Q.** And the “fold change (FC)” value (Jurkat [21])?
**A.** 2

**Q.** And the Activity (MOLM-13 [22])?
**A.** Active

**Q.** What about the Activity (MV4-11 [23]) of the same molecule?
**A.** Active

**Q.** And the Activity (U-937 [24])?
**A.** Active

**Q.** What about the Activity (Jurkat [42]) of the same molecule?
**A.** Active

**Q.** What about the Activity (TK6 [25]) of the same molecule?
**A.** Active

**Q.** What about the Activity (TK6 [43]) of the same molecule?
**A.** Active

**Q.** What about the IC50 (Jurkat [26]) of the same molecule?
**A.** 2.54 µM

**Q.** And the Activity (RPMI-1788 [29])?
**A.** Dose-dependent-effect

**Q.** And the Activity (Jurkat [30])?
**A.** Active

**Q.** What about the “fold change (FC)” value (Jurkat [31]) of the same molecule?
**A.** 70.4

**Q.** What about the Activity (Jurkat [32]) of the same molecule?
**A.** Active

**Q.** And the Activity (Jurkat [33])?
**A.** 48.7%

**Q.** And the Activity (MOLM-13 [34])?
**A.** Dose-dependent-effect

**Q.** And the Activity (Jurkat [44])?
**A.** Active

**Q.** What about the Activity (TK6 [35]) of the same molecule?
**A.** Active

**Q.** What about the Activity (TK6 [36]) of the same molecule?
**A.** Dose-dependent-effect

**Q.** What about the Activity (U-937 [37]) of the same molecule?
**A.** Dose-dependent-effect

**Q.** Which results are given for C[S+]([O-])CCCCN=C=S (centres undefined) [SULFORAPHANE]?
**A.** viability at 30 µM (Jurkat [45]): 66.2%; IC50 (Jurkat [19]): 29.7 µM

Reference: ChEMBL document CHEMBL6074652, “New rhodol-sulforaphane conjugates as innovative isothiocyanate-based cytotoxic agents for cancer cells” (Eur J Med Chem, 2024)
